Source: ChEMBL document CHEMBL5528028, “Discovery of benzopyridone cyanoacetates as new type of potential broad-spectrum antibacterial candidates” (Eur J Med Chem, 2024)
≈ marks a conversion by molar mass, not a printed value.

Experiments:
Type in all cases: functional
Escherichia coli [1] = experiment: Antibacterial activity against Escherichia coli assessed growth inhibition by micro broth dilution method
Enterococcus faecalis = experiment: Antibacterial activity against Enterococcus faecalis assessed growth inhibition by micro broth dilution method
Staphylococcus aureus [2] = experiment: Antibacterial activity against methicillin-resistant Staphylococcus aureus assessed growth inhibition by micro broth dilution method
Staphylococcus aureus [3] = experiment: Antibacterial activity against Staphylococcus aureus ATCC 29213 assessed growth inhibition by micro broth dilution method
Staphylococcus aureus [4] = experiment: Antibacterial activity against Staphylococcus aureus assessed growth inhibition by micro broth dilution method
Klebsiella pneumoniae = experiment: Antibacterial activity against Klebsiella pneumonia assessed growth inhibition by micro broth dilution method
Pseudomonas aeruginosa [5] = experiment: Antibacterial activity against Pseudomonas aeruginosa assessed growth inhibition by micro broth dilution method
Staphylococcus aureus [6] = experiment: Antibacterial activity against Staphylococcus aureus ATCC 25923 assessed growth inhibition by micro broth dilution method
Pseudomonas aeruginosa [7] = experiment: Antibacterial activity against Pseudomonas aeruginosa ATCC 27853 assessed growth inhibition by micro broth dilution method
Acinetobacter baumannii = experiment: Antibacterial activity against Acinetobacter baumannii assessed growth inhibition by micro broth dilution method
Escherichia coli [8] = experiment: Antibacterial activity against Escherichia coli ATCC 25922 assessed growth inhibition by micro broth dilution method

Row | Compound | MIC (Escherichia coli [1]) [µg/mL] | MIC (Enterococcus faecalis) [µg/mL] | MIC (Staphylococcus aureus [2]) [µg/mL] | MIC (Staphylococcus aureus [3]) [µg/mL] | MIC (Staphylococcus aureus [4]) [µg/mL] | MIC (Klebsiella pneumoniae) [µg/mL] | MIC (Pseudomonas aeruginosa [5]) [µg/mL] | MIC (Staphylococcus aureus [6]) [µg/mL] | MIC (Pseudomonas aeruginosa [7]) [µg/mL] | MIC (Acinetobacter baumannii) [µg/mL] | MIC (Escherichia coli [8]) [µg/mL]
1 | CCOC(=O)c1cn(CC2CC2)c2cc([C-](C#N)C(=O)OCC)c(F)cc2c1=O.[Na+] (stereo not drawn) | 16 | 64 | 64 | 16 | 64 | 16 | 16 | 4 | 8 | 16 | 4
2 | CCCCCCCCn1cc(C(=O)O)c(=O)c2cc(F)c(C(C#N)C(=O)OCC)cc21 (stereo not drawn) | 32 (≈ 74.3 µM) | 16 (≈ 37.2 µM) | 8 (≈ 18.6 µM) | 4 (≈ 9.29 µM) | 4 (≈ 9.29 µM) | 0.25 (≈ 0.581 µM) | 4 (≈ 9.29 µM) | 1 (≈ 2.32 µM) | 1 (≈ 2.32 µM) | 1 (≈ 2.32 µM) | 0.5 (≈ 1.16 µM)
3 | CCOC(=O)c1cn(Cc2ccc(Cl)cc2Cl)c2cc(F)c(F)cc2c1=O | 16 (≈ 38.8 µM) | 256 (≈ 621 µM) | 256 (≈ 621 µM) | 256 (≈ 621 µM) | 128 (≈ 311 µM) | 0.5 (≈ 1.21 µM) | 128 (≈ 311 µM) | 256 (≈ 621 µM) | 256 (≈ 621 µM) | 256 (≈ 621 µM) | 32 (≈ 77.6 µM)
4 | CCOC(=O)c1cn(Cc2ccc(F)cc2F)c2cc(C(C#N)C(=O)OCC)c(F)cc2c1=O (stereo not drawn) | 16 (≈ 33.9 µM) | 16 (≈ 33.9 µM) | 32 (≈ 67.7 µM) | 4 (≈ 8.47 µM) | 8 (≈ 16.9 µM) | 4 (≈ 8.47 µM) | 2 (≈ 4.23 µM) | 4 (≈ 8.47 µM) | 4 (≈ 8.47 µM) | 32 (≈ 67.7 µM) | 16 (≈ 33.9 µM)
5 | CCOC(=O)c1cn(Cc2cccc(Cl)c2)c2cc([C-](C#N)C(=O)OCC)c(F)cc2c1=O.[Na+] (stereo not drawn) | 0.5 | 1 | 64 | 2 | 128 | 4 | 16 | 1 | 2 | 64 | 2
6 | CCOC(=O)c1cn(Cc2ccc(F)cc2F)c2cc([C-](C#N)C(=O)OCC)c(F)cc2c1=O.[Na+] (stereo not drawn) | 1 | 8 | 64 | 4 | 128 | 4 | 64 | 0.5 | 2 | 32 | 2
7 | CCOC(=O)c1cn(Cc2ccc(Cl)cc2)c2cc([C-](C#N)C(=O)OCC)c(F)cc2c1=O.[Na+] (stereo not drawn) | 0.5 | 1 | 64 | 2 | 64 | 2 | 16 | 1 | 2 | 64 | 1
8 | CCOC(=O)c1cn(CC(N)=O)c2cc(F)c(F)cc2c1=O | 8 (≈ 25.8 µM) | 256 (≈ 825 µM) | 256 (≈ 825 µM) | 256 (≈ 825 µM) | 128 (≈ 413 µM) | 256 (≈ 825 µM) | 64 (≈ 206 µM) | 256 (≈ 825 µM) | 64 (≈ 206 µM) | 16 (≈ 51.6 µM) | 32 (≈ 103 µM)
9 | CCOC(=O)c1cn(Cc2ccc(C)cc2)c2cc([C-](C#N)C(=O)OCC)c(F)cc2c1=O.[Na+] (stereo not drawn) | 1 | 16 | 64 | 0.5 | 32 | 2 | 8 | 0.5 | 1 | 2 | 1
10 | CCOC(=O)c1cn(CC(N)=O)c2cc([C-](C#N)C(=O)OCC)c(F)cc2c1=O.[Na+] (stereo not drawn) | 256 | 256 | 256 | 256 | 256 | 256 | 256 | 256 | 256 | 256 | 256
11 | CCOC(=O)C(C#N)c1cc2c(cc1F)c(=O)c(C(=O)O)cn2Cc1ccc(Cl)cc1Cl (stereo not drawn) | 16 (≈ 33.5 µM) | 8 (≈ 16.8 µM) | 2 (≈ 4.19 µM) | 2 (≈ 4.19 µM) | 1 (≈ 2.1 µM) | 0.25 (≈ 0.524 µM) | 4 (≈ 8.38 µM) | 1 (≈ 2.1 µM) | 2 (≈ 4.19 µM) | 1 (≈ 2.1 µM) | 0.5 (≈ 1.05 µM)
12 | CCOC(=O)c1cn(Cc2ccccc2Cl)c2cc([C-](C#N)C(=O)OCC)c(F)cc2c1=O.[Na+] (stereo not drawn) | 0.25 | 1 | 64 | 2 | 256 | 4 | 16 | 0.5 | 2 | 32 | 2
13 | CCCCn1cc(C(=O)OCC)c(=O)c2cc(F)c(F)cc21 | 16 (≈ 51.7 µM) | 64 (≈ 207 µM) | 256 (≈ 828 µM) | 128 (≈ 414 µM) | 32 (≈ 103 µM) | 64 (≈ 207 µM) | 64 (≈ 207 µM) | 128 (≈ 414 µM) | 256 (≈ 828 µM) | 128 (≈ 414 µM) | 128 (≈ 414 µM)
